These results are taken from PubChem BioAssay (NCI).

Test systems include 786-0 renal; UACC-257 melanoma; UO-31 renal; EKVX NSCLC; RXF 393 renal; CAKI-1 renal; MDA-MB-231 breast; MOLT-4 leukemia.
Common to all, as to test: NCI tumour cell line growth inhibition, 48 h

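All cell lines were grown in 96-well plates and treated with compound for 48 hours. At the GI50, growth is halved. The concentration for full growth arrest is given as TGI.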

In the case of `COc1c/c(=C2\C=c3ccccc3=N2)[nH]/c1=C\c1[nH]c(C)cc1C`, the GI50 with 786-0 renal is 0.048 µM; with UACC-257 melanoma, 0.628 µM; in the assay with UO-31 renal it was less than 0.0106 µM; in the assay on EKVX NSCLC it was 0.601 µM; in the assay on RXF 393 renal, 0.538 µM; in the assay with CAKI-1 renal, less than 0.0103 µM. The GI50 in the assay on MDA-MB-231 breast was 0.0117 µM; in the assay on MOLT-4 leukemia, less than 0.0203 µM. Also, the TGI with 786-0 renal is 4.21 µM; in the assay on UACC-257 melanoma, 32.7 µM; in the assay with UO-31 renal it was 0.32 µM; in the assay on EKVX NSCLC, more than 94.4 µM; with RXF 393 renal, more than 100 µM; in the assay on CAKI-1 renal, 0.109 µM. In the assay on MDA-MB-231 breast, this compound displayed a TGI of 3.87 µM.
As to `Cc1ccc(O)c(NC(=O)c2cccc(Nc3ccnc(C(F)(F)F)c3)c2)c1`, the GI50 with 786-0 renal was 8.22 µM; with UO-31 renal, 3.03 µM; in the assay with EKVX NSCLC it was 3.37 µM; in the assay on CAKI-1 renal, 11 µM; in the assay on MDA-MB-231 breast it was 11.6 µM; in the assay with MOLT-4 leukemia, 2.02 µM. Also, the TGI is 51.5 µM in the assay on 786-0 renal; 18.1 µM in the assay on UO-31 renal; 59.4 µM in the assay on EKVX NSCLC; 31.8 µM in the assay on CAKI-1 renal; 44.8 µM in the assay on MDA-MB-231 breast; 8.15 µM with MOLT-4 leukemia.
As to `Cc1cc2c(C(=O)NC[C@H](C)c3ccccc3)c(O)c(O)cc2c(O)c1-c1c(C)cc2c(C(=O)NC[C@H](C)c3ccccc3)c(O)c(O)cc2c1O`, the GI50 in the assay on 786-0 renal was 0.368 µM; in the assay on UACC-257 melanoma, 1.37 µM; with UO-31 renal it was 0.285 µM; in the assay on EKVX NSCLC, 0.411 µM; in the assay with RXF 393 renal, 0.197 µM; in the assay with CAKI-1 renal, 0.375 µM. Moreover, the GI50 in the assay with MDA-MB-231 breast is 0.677 µM; with MOLT-4 leukemia, 0.199 µM. The TGI in the assay on 786-0 renal turned out to be 1.8 µM; with UACC-257 melanoma, 7.23 µM; in the assay with UO-31 renal, 1.24 µM; in the assay with EKVX NSCLC it was 8.1 µM; in the assay with RXF 393 renal, 0.895 µM; in the assay with CAKI-1 renal, 10 µM. Further, the TGI in the assay with MDA-MB-231 breast worked out at 6.53 µM; with MOLT-4 leukemia it was 7.8 µM.
With `Cc1nn(CNc2ccccc2C(F)(F)F)c(=S)n1/N=C/c1cccc2cccnc12`, the GI50 with 786-0 renal, in the assay with UACC-257 melanoma, with UO-31 renal, with EKVX NSCLC, with RXF 393 renal and in the assay with CAKI-1 renal was more than 100 µM throughout. For the same compound, the results for the GI50 with MDA-MB-231 breast and in the assay on MOLT-4 leukemia were 23.4 µM and 41.6 µM, respectively. Besides, the TGI with 786-0 renal, in the assay on UACC-257 melanoma, in the assay with UO-31 renal, in the assay with EKVX NSCLC, with RXF 393 renal and in the assay with CAKI-1 renal was more than 100 µM in each case. For the same compound, the TGI in the assay on MDA-MB-231 breast is 91.7 µM; in the assay on MOLT-4 leukemia, more than 100 µM.
Consider `O=C(O)c1cc(-c2ccc3cc4c(cc3c2)OCO4)nc2ccccc12`, for which the TGI is more than 100 µM in the assay on 786-0 renal; 35.4 µM in the assay with UACC-257 melanoma; 28.1 µM with UO-31 renal; 83 µM with EKVX NSCLC; more than 100 µM in the assay with RXF 393 renal; more than 100 µM with MDA-MB-231 breast. The compound also returned a TGI in the assay on MOLT-4 leukemia of more than 100 µM.
As for `O=C1NC(=C(Cl)Cl)/C(=N/S(=O)(=O)N2CCCCC2)N1`, the GI50 in the assay on 786-0 renal was 2.79 µM; in the assay with UACC-257 melanoma, 2.43 µM; in the assay on UO-31 renal it was 2.87 µM; in the assay with RXF 393 renal it was 1.84 µM; in the assay with CAKI-1 renal, 1.77 µM; in the assay on MDA-MB-231 breast, 1.85 µM. The TGI with 786-0 renal was determined as 7.74 µM; in the assay on UACC-257 melanoma, 7.07 µM; in the assay with UO-31 renal, 12.4 µM; with RXF 393 renal, 3.39 µM; in the assay with CAKI-1 renal, 3.26 µM; in the assay on MDA-MB-231 breast, 3.42 µM.
Regarding `COc1ccc(C(=O)C(CN(C)C)CN(C)C)cc1`, the GI50 with 786-0 renal was 3.87 µM; in the assay with UACC-257 melanoma it was 2.14 µM; with UO-31 renal, 1.37 µM; in the assay on EKVX NSCLC it was 13.7 µM; in the assay on RXF 393 renal, 1.55 µM; in the assay with CAKI-1 renal it was 1.89 µM. For the same compound, the GI50 with MDA-MB-231 breast is 14.6 µM. The TGI with 786-0 renal stood at 16.1 µM; with UACC-257 melanoma it was 8.48 µM; in the assay on UO-31 renal, 2.91 µM; in the assay on EKVX NSCLC, 51.1 µM; in the assay with RXF 393 renal, 3.8 µM; in the assay with CAKI-1 renal, 3.56 µM. Besides, in the assay on MDA-MB-231 breast, the TGI came to 36.6 µM.
For `COc1ccccc1Nc1cc(O)c2c(=O)cc(-c3ccccc3)oc2c1`, the GI50 with 786-0 renal was 5.15 µM; in the assay with UACC-257 melanoma it was 6.72 µM; in the assay with UO-31 renal, 3.57 µM; in the assay with EKVX NSCLC, 4.83 µM; in the assay with RXF 393 renal, 1.74 µM; with CAKI-1 renal it was 4.24 µM. The GI50 in the assay with MDA-MB-231 breast was 3.96 µM; with MOLT-4 leukemia, 4.08 µM. Further, the TGI turned out to be 27 µM with 786-0 renal; 63.5 µM in the assay with UACC-257 melanoma; 21.5 µM in the assay on UO-31 renal; 56 µM in the assay with EKVX NSCLC; 5.34 µM in the assay with RXF 393 renal; 20.3 µM with CAKI-1 renal. Moreover, the TGI in the assay on MDA-MB-231 breast is 18.4 µM; in the assay on MOLT-4 leukemia, more than 100 µM.
For the compound `COc1ccc2ncn(-c3cc(O[C@H](C)c4ccccc4C(F)(F)F)c(C(N)=O)s3)c2c1`, the GI50 with 786-0 renal is 0.592 µM; with UACC-257 melanoma it was 2.55 µM; with UO-31 renal, 1.79 µM; with EKVX NSCLC, 1.33 µM; with RXF 393 renal it was 0.0902 µM; in the assay with CAKI-1 renal it was 1.65 µM. The GI50 was 0.167 µM in the assay on MDA-MB-231 breast and 0.122 µM with MOLT-4 leukemia. Also, the TGI in the assay on 786-0 renal is 5.79 µM; in the assay on UACC-257 melanoma, 6.28 µM; in the assay on UO-31 renal, 12.4 µM; in the assay with EKVX NSCLC it was 13.1 µM; in the assay with RXF 393 renal, 3.72 µM; with CAKI-1 renal it was 17.5 µM. In addition, the TGI is 5.19 µM with MDA-MB-231 breast and 4.43 µM in the assay on MOLT-4 leukemia.
Regarding `CC(C)C[C@H](NC(=O)CNC(=O)c1cc(Cl)ccc1Cl)B(O)O`, the GI50 with 786-0 renal is 0.0278 µM; in the assay on UACC-257 melanoma, 0.0153 µM; with UO-31 renal, less than 0.0131 µM; in the assay on RXF 393 renal it was less than 0.0138 µM; in the assay with CAKI-1 renal, less than 0.0165 µM; in the assay on MDA-MB-231 breast, 0.0302 µM. Moreover, the GI50 in the assay with MOLT-4 leukemia is 0.0187 µM. The TGI came out at 0.814 µM with 786-0 renal; 0.0492 µM in the assay with UACC-257 melanoma; 0.0406 µM in the assay with UO-31 renal; 0.0356 µM with RXF 393 renal; 0.0676 µM with CAKI-1 renal; 0.14 µM in the assay with MDA-MB-231 breast. In addition, the TGI with MOLT-4 leukemia amounted to 0.0797 µM.
